Source: patent publication US10759790B2, “Heterocyclic constrained tricyclic sulfonamides as anti-cancer agents” (ICAHN SCHOOL OF MEDICINE AT MOUNT SINAI, priority 2015, dated 2020)
Where two headings read alike, the source gives them in different places.

System: H1650 lung cancer cells
Assay: Cell viability assay (MTT, IC50 determination)
Format: cell-based
Settings: for IC50: Homo sapiens, read-out: H1650 cell viability IC50
Procedure: Cell viability assays were performed according to Denizot, F. and R. Lang, Journal of Immunological Methods, 1986. 89(22): p. 271-277. H1650 lung cancer cells were plated at 150,000 cells per well in a 12 well plate. Twenty-four hours after plating, cells were treated as described with increasing concentrations of drug and control. Forty-eight hours after drug treatment, cells were treated with 100 μL of 3-(4,5-Dimethylthiazol-2-yl)-2,5-diphenyltetrazolium bromide (MTT) and incubated for 2 hours at 37 C. The MTT solution was subsequently replaced with 300 μL of n-propyl alcohol and re-aliquoted to a 96 well plate. Spectrophotometric analysis of each solution was performed using a 96 well plate reader at 600 nm in triplicate.

[1] = NCI-H1650, H1650 lung cancer cells, MTT, 48 hours after drug treatment

IC50 [1] | Structure (SMILES) | also measured
20 µM | CC(=O)N1CC(NS(=O)(=O)c2ccc(OC(F)(F)F)cc2)[C@H](O)C(N2c3ccccc3Oc3ccccc32)C1 (mixture of isomers) [Example 18, Rac-N-((3R,4R,5S)-1-acetyl-4-hydroxy-5-(10H-phenoxazin-10-yl)piperidin-3-yl)-4-(trifluoromethoxy)benzenesulfonamide] | –
5 µM | CC(C)(C)OC(=O)N1C[C@H](NS(=O)(=O)c2ccc(OC(F)(F)F)cc2)[C@@H](O)[C@H](n2c3ccccc3c3ccccc32)C1 [Example 52b, (3R,4S,5S)-tert-butyl 3-(9H-carbazol-9-yl)-4-hydroxy-5-(4-(trifluoromethoxy)phenylsulfonamido)piperidine-1-carboxylate] | –
15 µM | O=S(=O)(N[C@@H]1COCC(N2c3ccccc3Oc3ccccc32)[C@H]1O)c1ccc(OC(F)(F)F)cc1 (relative stereo) [Example 2, N-(4-hydroxy-5-(10H-phenoxazin-10-yl)tetrahydro-2H-pyran-3-yl)-4-(trifluoromethoxy)benzenesulfonamide] | –
5 µM | O=S(=O)(N[C@@H]1COC[C@H](n2c3ccc(Cl)cc3c3cc(Cl)ccc32)[C@H]1O)c1ccc(OC(F)(F)F)cc1 [Example 5, N-((3R,4R,5S)-5-(3,6-dichloro-9H-carbazol-9-yl)-4-hydroxytetrahydro-2H-pyran-3-yl)-4-(trifluoromethoxy)benzenesulfonamide] | –
– | CC(=O)N1C[C@H](NS(=O)(=O)c2ccc(OC(F)(F)F)cc2)[C@@H](O)[C@H](N2c3ccccc3Oc3ccccc32)C1 [Example 18b, N-((3S,4S,5R)-1-acetyl-4-hydroxy-5-(10H-phenoxazin-10-yl)piperidin-3-yl)-4-(trifluoromethoxy)benzenesulfonamide] | IC50 (NCI-H1650, 48 h): 15 µM
15 µM | O=S(=O)(N[C@@H]1CNC[C@H](N2c3ccccc3Oc3ccccc32)[C@H]1O)c1ccc(OC(F)(F)F)cc1 [Example 17a, N-((3R,4R,5S)-4-hydroxy-5-(10H-phenoxazin-10-yl)piperidin-3-yl)-4-(trifluoromethoxy)benzenesulfonamide] | –
25 µM | CN1C[C@@H](NS(=O)(=O)c2ccc(OC(F)(F)F)cc2)[C@H](O)[C@@H](N2c3ccccc3Oc3ccccc32)C1 [Example 19a] | –
5 µM | CC(C)(C)c1ccc2c(c1)c1ccccc1n2[C@H]1CNC[C@@H](NS(=O)(=O)c2ccc(OC(F)(F)F)cc2)[C@@H]1O [Example 53a, N-((3R,4R,5S)-5-(3-(tert-butyl)-9H-carbazol-9-yl)-4-hydroxypiperidin-3-yl)-4-(trifluoromethoxy)benzenesulfonamide] | –
– | COC(=O)N1C[C@@H](NS(=O)(=O)c2ccc(OC(F)(F)F)cc2)[C@H](O)[C@@H](N2c3ccccc3Oc3ccccc32)C1 [Example 20a, (3S,4R,5R)-methyl 4-hydroxy-3-(10H-phenoxazin-10-yl)-5-(4-(trifluoromethoxy)phenylsulfonamido)piperidine-1-carboxylate] | IC50 (NCI-H1650, 48 h): 15 µM
– | CC(=O)N1C[C@@H](NS(=O)(=O)c2ccc(OC(F)(F)F)cc2)[C@H](O)[C@@H](N2c3ccccc3Oc3ccccc32)C1 [Example 18a, N-((3R,4R,5S)-1-acetyl-4-hydroxy-5-(10H-phenoxazin-10-yl)piperidin-3-yl)-4-(trifluoromethoxy)benzenesulfonamide] | IC50 (NCI-H1650, 48 h): 25 µM
10 µM | O=S(=O)(N[C@@H]1CNC[C@H](n2c3ccc(Cl)cc3c3cc(Cl)ccc32)[C@H]1O)c1ccc(OC(F)(F)F)cc1 [Example 44] | –
5 µM | O=S(=O)(N[C@@H]1COC[C@H](N2c3ccc(C(F)(F)F)cc3Oc3cc(C(F)(F)F)ccc32)[C@H]1O)c1ccc(OC(F)(F)F)cc1 [Example 14, N-((3R,4R,5S)-5-(3,7-bis(trifluoromethyl)-10H-phenoxazin-10-yl)-4-hydroxytetrahydro-2H-pyran-3-yl)-4-(trifluoromethoxy)benzenesulfonamide] | –
15 µM | O=S(=O)(N[C@@H]1COC[C@H](n2c3ccccc3c3cc(F)ccc32)[C@H]1O)c1ccc(OC(F)(F)F)cc1 [Example 4, N-((3R,4R,5S)-5-(3-fluoro-9H-carbazol-9-yl)-4-hydroxytetrahydro-2H-pyran-3-yl)-4-(trifluoromethoxy)benzenesulfonamide] | –
10 µM | CC(C)(C)OC(=O)N1C[C@@H](NS(=O)(=O)c2ccc(OC(F)(F)F)cc2)[C@H](O)[C@@H](N2c3ccccc3Oc3ccccc32)C1 [Example 16a, (3S,4R,5R)-tert-butyl 4-hydroxy-3-(10H-phenoxazin-10-yl)-5-(4-(trifluoromethoxy)phenylsulfonamido)piperidine-1-carboxylate] | –
15 µM | O=S(=O)(N[C@@H]1COC[C@H](N2c3ccccc3Oc3ccccc32)[C@H]1O)c1cccc(Cl)c1 [Example 64, 3-chloro-N-((3R,4R,5S)-4-hydroxy-5-(10H-phenoxazin-10-yl)tetrahydro-2H-pyran-3-yl)benzenesulfonamide] | –
20 µM | O=S(=O)(N[C@@H]1COC[C@H](N2c3ccccc3Oc3ccccc32)[C@H]1O)c1ccccc1Cl [Example 65, 2-chloro-N-((3R,4R,5S)-4-hydroxy-5-(10H-phenoxazin-10-yl)tetrahydro-2H-pyran-3-yl)benzenesulfonamide] | –
10 µM | O=S(=O)(N[C@@H]1COC[C@H](N2c3ccccc3Oc3ccc(C(F)(F)F)cc32)[C@H]1O)c1ccc(OC(F)(F)F)cc1 [Example 8, N-((3R,4R,5S)-4-hydroxy-5-(2-(trifluoromethyl)-10H-phenoxazin-10-yl)tetrahydro-2H-pyran-3-yl)-4-(trifluoromethoxy)benzenesulfonamide] | –
15 µM | O=S(=O)(N[C@@H]1COC[C@H](N2c3ccccc3Oc3ccc(F)cc32)[C@H]1O)c1ccc(OC(F)(F)F)cc1 [Example 7, N-((3R,4R,5S)-5-(2-fluoro-10H-phenoxazin-10-yl)-4-hydroxytetrahydro-2H-pyran-3-yl)-4-(trifluoromethoxy)benzenesulfonamide] | –
– | O=S(=O)(N[C@@H]1COC[C@H](N2c3ccccc3Oc3ccccc32)[C@H]1O)c1ccccc1 [Example 60, N-((3R,4R,5S)-4-hydroxy-5-(10H-phenoxazin-10-yl)tetrahydro-2H-pyran-3-yl)benzenesulfonamide] | H1650 cell viability, % at 40 uM (at 40 uM, H1650 lung cancer cells, MTT, 48 hours): 37% at 40 uM
10 µM | O=S(=O)(N[C@@H]1COC[C@H](n2c3ccccc3c3ccccc32)[C@H]1O)c1ccc(OC(F)(F)F)cc1 [Example 50, N-((3R,4R,5S)-5-(9H-carbazol-9-yl)-4-hydroxytetrahydro-2H-pyran-3-yl)-4-(trifluoromethoxy)benzenesulfonamide] | –
20 µM | O=S(=O)(N[C@@H]1COC[C@H](N2c3ccccc3Oc3ccccc32)[C@H]1O)c1ccc(C(F)(F)F)nc1 [Example 63, N-((3R,4R,5S)-4-hydroxy-5-(10H-phenoxazin-10-yl)tetrahydro-2H-pyran-3-yl)-6-(trifluoromethyl)pyridine-3-sulfonamide] | –
